Measured values reported in BigSolDB 2.1.

Clc1ccccc1C(c1ccccc1)(c1ccccc1)n1ccnc1
solubility (mole fraction)
Conditions	293.2 K	298.2 K	303.2 K	308.2 K	313.2 K
in ethanol	0.0154	0.0167	0.0216	0.025	0.0312
in water	2.42e-08	2.92e-08	3.38e-08	3.77e-08	4.15e-08
